Source: the supplement of paper PMC10307832

How the values were obtained:
Assay in all cases: relative viability (nuclei count vs DMSO), 5 days (fraction); higher = more cells survive
H3255 = tested on: H3255
How it was run: (§1)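 Lung cancer cell lines in 1536-well plates were dosed by pin tool the day after seeding, either with one drug alone or with a fixed anchor-drug dose plus five library-drug doses (not always all listed) in √10 steps. After 5 days, cells were fixed and their nuclei stained in one step (final 0.05% Triton X-100, 1% formaldehyde, 1 ug/ml Hoechst), then counted on 4× images. Relative viability is the nuclei count in treated wells divided by that in vehicle wells. Values are medians of duplicate plates.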

NCI-H2087 = tested on: NCI-H2087
How it was run: as §1

NCI-H2023 = tested on: NCI-H2023
How it was run: as §1

PC-3 [JPC-3] = tested on: PC-3 [JPC-3]
How it was run: as §1

NCI-H650 = tested on: NCI-H650
How it was run: as §1

LC-2-ad = tested on: LC-2-ad
How it was run: as §1

CAL-12T = tested on: CAL-12T
How it was run: as §1

201T = tested on: 201T
How it was run: as §1

ABC-1 = tested on: ABC-1
How it was run: as §1

NCI-H1650 = tested on: NCI-H1650
How it was run: as §1

NCI-H661 = tested on: NCI-H661
How it was run: as §1

NCI-H441 = tested on: NCI-H441
How it was run: as §1

NCI-H520 = tested on: NCI-H520
How it was run: as §1

NCI-H460 = tested on: NCI-H460
How it was run: as §1

NCI-H727 = tested on: NCI-H727
How it was run: as §1

NCI-H1944 = tested on: NCI-H1944
How it was run: as §1

BEN = tested on: BEN
How it was run: as §1

NCI-H1915 = tested on: NCI-H1915
How it was run: as §1

LCLC-97TM1 = tested on: LCLC-97TM1
How it was run: as §1

NCI-H1651 = tested on: NCI-H1651
How it was run: as §1

A-427 = tested on: A-427
How it was run: as §1

NCI-H596 = tested on: NCI-H596
How it was run: as §1

## COc1nc(C)cnc1NS(=O)(=O)c1cccnc1-c1ccc(-c2nnco2)cc1 [Zibotentan] + CC(=O)c1c(C)c2cnc(Nc3ccc(N4CCNCC4)cn3)nc2n(C2CCCC2)c1=O [Palbociclib] (partner 0.5 µM)
H3255; first compound 0.08 µM
  relative viability: 0.317
H3255; first compound 0.253 µM
  relative viability: 0.318
H3255; first compound 0.8 µM
  relative viability: 0.355
H3255; first compound 2.53 µM
  relative viability: 0.283
NCI-H2087; first compound 0.08 µM
  relative viability: 0.221
NCI-H2087; first compound 0.253 µM
  relative viability: 0.263
NCI-H2087; first compound 0.8 µM
  relative viability: 0.297
NCI-H2087; first compound 2.53 µM
  relative viability: 0.268
NCI-H2023; first compound 0.08 µM
  relative viability: 0.409
NCI-H2023; first compound 0.8 µM
  relative viability: 0.355
NCI-H2023; first compound 2.53 µM
  relative viability: 0.356
PC-3 [JPC-3]; first compound 0.08 µM
  relative viability: 0.556
PC-3 [JPC-3]; first compound 0.253 µM
  relative viability: 0.548
PC-3 [JPC-3]; first compound 0.8 µM
  relative viability: 0.537
PC-3 [JPC-3]; first compound 2.53 µM
  relative viability: 0.581
NCI-H650; first compound 0.08 µM
  relative viability: 0.339
NCI-H650; first compound 0.253 µM
  relative viability: 0.371
NCI-H650; first compound 0.8 µM
  relative viability: 0.351
NCI-H650; first compound 2.53 µM
  relative viability: 0.355
LC-2-ad; first compound 0.08 µM
  relative viability: 0.489
LC-2-ad; first compound 0.253 µM
  relative viability: 0.459
LC-2-ad; first compound 0.8 µM
  relative viability: 0.44
LC-2-ad; first compound 2.53 µM
  relative viability: 0.508
CAL-12T; first compound 0.08 µM
  relative viability: 0.625
CAL-12T; first compound 0.253 µM
  relative viability: 0.365
CAL-12T; first compound 0.8 µM
  relative viability: 0.629
CAL-12T; first compound 2.53 µM
  relative viability: 0.508
201T; first compound 0.08 µM
  relative viability: 0.357
201T; first compound 0.253 µM
  relative viability: 0.346
201T; first compound 0.8 µM
  relative viability: 0.359
201T; first compound 2.53 µM
  relative viability: 0.363
ABC-1; first compound 0.08 µM
  relative viability: 0.603
ABC-1; first compound 0.253 µM
  relative viability: 0.475
ABC-1; first compound 0.8 µM
  relative viability: 0.664
ABC-1; first compound 2.53 µM
  relative viability: 0.676
NCI-H1650; first compound 0.08 µM
  relative viability: 0.335
NCI-H1650; first compound 0.8 µM
  relative viability: 0.357
NCI-H1650; first compound 2.53 µM
  relative viability: 0.336
NCI-H661; first compound 0.08 µM
  relative viability: 0.421
NCI-H661; first compound 0.253 µM
  relative viability: 0.384
NCI-H661; first compound 0.8 µM
  relative viability: 0.455
NCI-H661; first compound 2.53 µM
  relative viability: 0.396
NCI-H441; first compound 0.08 µM
  relative viability: 0.237
NCI-H441; first compound 0.253 µM
  relative viability: 0.197
NCI-H441; first compound 0.8 µM
  relative viability: 0.254
NCI-H441; first compound 2.53 µM
  relative viability: 0.24
NCI-H520; first compound 0.08 µM
  relative viability: 0.219
NCI-H520; first compound 0.253 µM
  relative viability: 0.208
NCI-H520; first compound 0.8 µM
  relative viability: 0.208
NCI-H520; first compound 2.53 µM
  relative viability: 0.248
NCI-H460; first compound 0.08 µM
  relative viability: 0.157
NCI-H460; first compound 0.253 µM
  relative viability: 0.0391
NCI-H460; first compound 0.8 µM
  relative viability: 0.139
NCI-H460; first compound 2.53 µM
  relative viability: 0.25
NCI-H727; first compound 0.08 µM
  relative viability: 0.623
NCI-H727; first compound 0.253 µM
  relative viability: 0.667
NCI-H727; first compound 0.8 µM
  relative viability: 0.73
NCI-H727; first compound 2.53 µM
  relative viability: 0.658
NCI-H1944; first compound 0.08 µM
  relative viability: 0.366
NCI-H1944; first compound 0.253 µM
  relative viability: 0.301
NCI-H1944; first compound 0.8 µM
  relative viability: 0.333
NCI-H1944; first compound 2.53 µM
  relative viability: 0.39
BEN; first compound 0.08 µM
  relative viability: 0.496
BEN; first compound 0.253 µM
  relative viability: 0.493
BEN; first compound 0.8 µM
  relative viability: 0.451
BEN; first compound 2.53 µM
  relative viability: 0.44
NCI-H1915; first compound 0.08 µM
  relative viability: 0.586
NCI-H1915; first compound 0.253 µM
  relative viability: 0.499
NCI-H1915; first compound 0.8 µM
  relative viability: 0.546
NCI-H1915; first compound 2.53 µM
  relative viability: 0.569
LCLC-97TM1; first compound 0.08 µM
  relative viability: 0.236
LCLC-97TM1; first compound 0.253 µM
  relative viability: 0.247
LCLC-97TM1; first compound 0.8 µM
  relative viability: 0.228
LCLC-97TM1; first compound 2.53 µM
  relative viability: 0.253
NCI-H1651; first compound 0.08 µM
  relative viability: 0.521
NCI-H1651; first compound 0.253 µM
  relative viability: 0.522
NCI-H1651; first compound 0.8 µM
  relative viability: 0.48
NCI-H1651; first compound 2.53 µM
  relative viability: 0.492
A-427; first compound 0.08 µM
  relative viability: 0.514
A-427; first compound 0.253 µM
  relative viability: 0.515
A-427; first compound 0.8 µM
  relative viability: 0.519
A-427; first compound 2.53 µM
  relative viability: 0.559

## COc1nc(C)cnc1NS(=O)(=O)c1cccnc1-c1ccc(-c2nnco2)cc1 [Zibotentan] + CS(=O)(=O)CCNCc1ccc(-c2ccc3ncnc(Nc4ccc(OCc5cccc(F)c5)c(Cl)c4)c3c2)o1 [Lapatinib] (partner 2 µM)
H3255; first compound 0.08 µM
  relative viability: 0.271
H3255; first compound 0.253 µM
  relative viability: 0.255
H3255; first compound 0.8 µM
  relative viability: 0.281
H3255; first compound 2.53 µM
  relative viability: 0.239
NCI-H2087; first compound 0.08 µM
  relative viability: 1.17
NCI-H2087; first compound 0.253 µM
  relative viability: 0.955
NCI-H2087; first compound 0.8 µM
  relative viability: 1.06
NCI-H2087; first compound 2.53 µM
  relative viability: 1.09
NCI-H2023; first compound 0.08 µM
  relative viability: 0.87
NCI-H2023; first compound 0.253 µM
  relative viability: 0.4
NCI-H2023; first compound 0.8 µM
  relative viability: 0.651
NCI-H2023; first compound 2.53 µM
  relative viability: 0.846
PC-3 [JPC-3]; first compound 0.08 µM
  relative viability: 0.444
PC-3 [JPC-3]; first compound 0.253 µM
  relative viability: 0.458
PC-3 [JPC-3]; first compound 0.8 µM
  relative viability: 0.421
PC-3 [JPC-3]; first compound 2.53 µM
  relative viability: 0.48
NCI-H650; first compound 0.08 µM
  relative viability: 0.974
NCI-H650; first compound 0.253 µM
  relative viability: 0.655
NCI-H650; first compound 0.8 µM
  relative viability: 1
NCI-H650; first compound 2.53 µM
  relative viability: 0.904
LC-2-ad; first compound 0.08 µM
  relative viability: 0.962
LC-2-ad; first compound 0.253 µM
  relative viability: 0.944
LC-2-ad; first compound 0.8 µM
  relative viability: 1.06
LC-2-ad; first compound 2.53 µM
  relative viability: 1.01
CAL-12T; first compound 0.08 µM
  relative viability: 0.606
CAL-12T; first compound 0.8 µM
  relative viability: 0.55
CAL-12T; first compound 2.53 µM
  relative viability: 0.652
201T; first compound 0.08 µM
  relative viability: 1.03
201T; first compound 0.253 µM
  relative viability: 0.977
201T; first compound 0.8 µM
  relative viability: 1.11
201T; first compound 2.53 µM
  relative viability: 1.02
ABC-1; first compound 0.08 µM
  relative viability: 1.28
ABC-1; first compound 0.253 µM
  relative viability: 0.885
ABC-1; first compound 0.8 µM
  relative viability: 0.971
ABC-1; first compound 2.53 µM
  relative viability: 1.28
NCI-H1650; first compound 0.08 µM
  relative viability: 0.732
NCI-H1650; first compound 0.8 µM
  relative viability: 0.781
NCI-H1650; first compound 2.53 µM
  relative viability: 0.813
NCI-H661; first compound 0.08 µM
  relative viability: 0.453
NCI-H661; first compound 0.253 µM
  relative viability: 0.445
NCI-H661; first compound 0.8 µM
  relative viability: 0.445
NCI-H661; first compound 2.53 µM
  relative viability: 0.46
NCI-H520; first compound 0.08 µM
  relative viability: 0.885
NCI-H520; first compound 0.253 µM
  relative viability: 0.809
NCI-H520; first compound 0.8 µM
  relative viability: 0.853
NCI-H520; first compound 2.53 µM
  relative viability: 0.927
NCI-H460; first compound 0.08 µM
  relative viability: 1.04
NCI-H460; first compound 0.8 µM
  relative viability: 1.03
NCI-H460; first compound 2.53 µM
  relative viability: 1.12
NCI-H727; first compound 0.08 µM
  relative viability: 0.879
NCI-H727; first compound 0.253 µM
  relative viability: 0.739
NCI-H727; first compound 0.8 µM
  relative viability: 0.781
NCI-H727; first compound 2.53 µM
  relative viability: 1.16
NCI-H1944; first compound 0.08 µM
  relative viability: 1.06
NCI-H1944; first compound 0.253 µM
  relative viability: 0.7
NCI-H1944; first compound 0.8 µM
  relative viability: 0.747
NCI-H1944; first compound 2.53 µM
  relative viability: 0.762
BEN; first compound 0.08 µM
  relative viability: 0.762
BEN; first compound 0.253 µM
  relative viability: 0.721
BEN; first compound 0.8 µM
  relative viability: 0.68
BEN; first compound 2.53 µM
  relative viability: 0.605
NCI-H1915; first compound 0.08 µM
  relative viability: 1.03
NCI-H1915; first compound 0.253 µM
  relative viability: 0.934
NCI-H1915; first compound 0.8 µM
  relative viability: 0.963
NCI-H1915; first compound 2.53 µM
  relative viability: 1.03
LCLC-97TM1; first compound 0.08 µM
  relative viability: 1.01
LCLC-97TM1; first compound 0.253 µM
  relative viability: 0.95
LCLC-97TM1; first compound 0.8 µM
  relative viability: 0.841
LCLC-97TM1; first compound 2.53 µM
  relative viability: 0.93
NCI-H596; first compound 0.08 µM
  relative viability: 1.03
NCI-H596; first compound 0.253 µM
  relative viability: 1.12
NCI-H596; first compound 0.8 µM
  relative viability: 1.08
NCI-H596; first compound 2.53 µM
  relative viability: 1.08
NCI-H1651; first compound 0.08 µM
  relative viability: 0.935
NCI-H1651; first compound 0.253 µM
  relative viability: 0.366
NCI-H1651; first compound 0.8 µM
  relative viability: 0.747
NCI-H1651; first compound 2.53 µM
  relative viability: 0.854
A-427; first compound 0.08 µM
  relative viability: 1.08
A-427; first compound 0.253 µM
  relative viability: 1.06
A-427; first compound 0.8 µM
  relative viability: 1.05
A-427; first compound 2.53 µM
  relative viability: 0.984
